Drawing on US20240050428A1 (Cullgen (Shanghai), Inc., priority 2020, published 2024), this text covers IC50 for 18 compounds.

Read-outs that look alike come from different tables or passages of the source. A value given as a limit tells only on which side of the number the result lay.

One test deals with MV4;11 cells. Nature of the test: Cell viability assay (CellTiter-Glo) in MV4;11 cells, alone or with gilteritinib. The test is classed as cell-based. The note with it: Homo sapiens, MV4;11 cells, three days, CellTiter-Glo, read-out: MV4. Background: In ATP-based viability assays light output follows the ATP content of the culture.
The subject of a further test is MOLM-13 cells. Nature of the test: Cell viability assay (CellTiter-Glo) in MOLM-13 cells, alone or with gilteritinib. The format is cell-based. The note with it: Homo sapiens, MOLM-13 cells, three days, CellTiter-Glo.
The mark [1] stands for this setting: MV4-11, 72 h, compound alone (without gilteritinib), 11 IC50.
[2] abbreviates: MV4-11, 72 h, with gilteritinib 10 nM, 11 IC50 gilteritinib.
Where [3] appears, read: MOLM-13, 72 h, compound alone (without gilteritinib), read-out: MOLM-13 IC50.
Setting [4] is: MOLM-13, 72 h, with gilteritinib 20 nM, read-out: MOLM-13 IC50 gilteritinib.
Where [5] appears, read: MV4-11, 72 h, compound with gilteritinib 10 nM, 11 IC50 gilteritinib.
The mark [6] stands for this setting: MOLM-13, 72 h, compound with gilteritinib 20 nM, read-out: MOLM-13 IC50 gilteritinib.

`O=C1CCC(N2Cc3ccc(CCCCCC(=O)N4CCC(c5ccc(Cl)cc5)CC4)cc3C2=O)C(=O)N1` (stereo not drawn) [GS-114, 3-(6-(6-(4-(4-Chlorophenyl)piperidin-1-yl)-6-oxohexyl)-1-oxoisoindolin-2-yl)piperidine-2,6-dione]: the IC50 with MV4;11 cells (72 h, compound alone (without gilteritinib), 11 IC50) lay in the range of 100 to 1000 nM; in the test on MV4;11 cells (72 h, with gilteritinib 10 nM, 11 IC50 gilteritinib) it was 10 to 100 nM; in the test with MOLM-13 cells (72 h, compound alone (without gilteritinib), read-out: MOLM-13 IC50) it was 100 to 1000 nM; with MOLM-13 cells (72 h, with gilteritinib 20 nM, read-out: MOLM-13 IC50 gilteritinib) it was 10 to 100 nM.
Regarding `O=C1CCC(N2C(=O)c3ccc(NC[C@H]4C[C@H](n5cc(-c6cc7[nH]cnc7cn6)c(C6CC6)n5)C4)cc3C2=O)C(=O)N1` (stereo partly drawn) [GS-307, 5-(((trans-3-(3-Cyclopropyl-4-(1H-imidazo[4,5-c]pyridin-6-yl)-1H-pyrazol-1-yl)cyclobutyl)methyl)amino)-2-(2,6-dioxopiperidin-3-yl)isoindoline-1,3-dione], the IC50 with MV4;11 cells (setting [1]) was in the range of 100 to 1000 nM; with MV4;11 cells (setting [2]), 10 to 100 nM; in the test on MOLM-13 cells (setting [3]), 100 to 1000 nM; in the test on MOLM-13 cells (setting [4]) it was 10 to 100 nM.
On to `Cc1cccc2nc(-c3cnn(CCCCCCNc4ccc5c(c4)C(=O)N(C4CCC(=O)NC4=O)C5=O)c3)cnc12` (stereo not drawn) [GS-512, 2-(2,6-dioxopiperidin-3-yl)-5-((6-(4-(5-methylquinoxalin-2-yl)-1H-pyrazol-1-yl)hexyl)amino)isoindoline-1,3-dione], for which the IC50 in the test with MV4;11 cells (setting [1]) was 10 to 100 nM; in the test on MV4;11 cells (setting [5]) it was 10 to 100 nM; in the test on MOLM-13 cells (setting [3]) it was 10 to 100 nM; with MOLM-13 cells (setting [6]) it was below 10 nM.
Consider `O=C1CCC(N2C(=O)c3ccc(NCCC[C@H]4C[C@H](n5cc(-c6ncccc6Cl)cn5)C4)cc3C2=O)C(=O)N1` (stereo partly drawn) [GS-311, 5-((3-(trans-3-(4-(3-Chloropyridin-2-yl)-1H-pyrazol-1-yl)cyclobutyl)propyl)amino)-2-(2,6-dioxopiperidin-3-yl)isoindoline-1,3-dione], for which the IC50 was 10 to 100 nM in the test with MV4;11 cells (setting [1]), below 10 nM in the test with MV4;11 cells (setting [2]), above 1000 nM with MOLM-13 cells (setting [3]) and 10 to 100 nM in the test on MOLM-13 cells (setting [4]).
As to `O=C(Cc1ccc(N2CCC(n3cc(-c4cnc5ccccc5n4)cn3)CC2)cc1)NCc1ccc2c(c1)CN(C1CCC(=O)NC1=O)C2=O` (stereo not drawn) [GS-122, N-((2-(2,6-dioxopiperidin-3-yl)-1-oxoisoindolin-5-yl)methyl)-2-(4-(4-(4-(quinoxalin-2-yl)-1H-pyrazol-1-yl)piperidin-1-yl)phenyl)acetamide], the IC50 with MV4;11 cells (setting [1]), with MV4;11 cells (setting [2]), with MOLM-13 cells (setting [3]) and in the test with MOLM-13 cells (setting [4]) was below 10 nM throughout.
For `O=C1CCC(N2C(=O)c3ccc(NCCC[C@H]4C[C@H](n5cc(-c6cnc7ccccc7n6)cn5)C4)cc3C2=O)C(=O)N1` (stereo partly drawn) [GS-176, 2-(2,6-Dioxopiperidin-3-yl)-5-((3-(trans-3-(4-(quinoxalin-2-yl)-1H-pyrazol-1-yl)cyclobutyl)propyl)amino)isoindoline-1,3-dione], the IC50 in the test on MV4;11 cells (setting [1]) was 100 to 1000 nM; with MV4;11 cells (setting [2]) it was 10 to 100 nM; in the test with MOLM-13 cells (setting [3]) it was 100 to 1000 nM; in the test on MOLM-13 cells (setting [4]) it was 10 to 100 nM.
With `O=C1CCC(N2C(=O)c3ccc(NCCC[C@H]4C[C@H](n5cc(-c6ccc(Cl)cn6)cn5)C4)cc3C2=O)C(=O)N1` (stereo partly drawn) [GS-443, 5-((3-(trans-3-(4-(5-chloropyridin-2-yl)-1H-pyrazol-1-yl)cyclobutyl)propyl)amino)-2-(2,6-dioxopiperidin-3-yl)isoindoline-1,3-dione], the IC50 is 100 to 1000 nM with MV4;11 cells (setting [1]), 100 to 1000 nM in the test on MV4;11 cells (setting [5]), below 10 nM in the test with MOLM-13 cells (setting [3]) and above 1000 nM with MOLM-13 cells (setting [6]).
For the compound `O=C1CCC(N2Cc3ccc(CCCCCCC(=O)N4CCC(n5cc(-c6ccc7ccccc7n6)cn5)CC4)cc3C2=O)C(=O)N1` (stereo not drawn) [GS-098, 3-(1-Oxo-6-(7-oxo-7-(4-(4-(quinolin-2-yl)-1H-pyrazol-1-yl)piperidin-1-yl)heptyl)isoindolin-2-yl)piperidine-2,6-dione], the IC50 with MV4;11 cells (setting [1]) is 10 to 100 nM; in the test on MV4;11 cells (setting [2]), 10 to 100 nM; in the test with MOLM-13 cells (setting [3]) it was 100 to 1000 nM; with MOLM-13 cells (setting [4]), below 10 nM.
Turning to `Cn1ncc2cnc(-c3cn([C@H]4C[C@H](CNc5ccc6c(c5)C(=O)N(C5CCC(=O)NC5=O)C6=O)C4)nc3C3CC3)cc21` (stereo partly drawn) [GS-613, 5-(((trans-3-(3-Cyclopropyl-4-(1-methyl-1H-pyrazolo[4,3-c]pyridin-6-yl)-1H-pyrazol-1-yl)cyclobutyl)methyl)amino)-2-(2,6-dioxopiperidin-3-yl)isoindoline-1,3-dione], the IC50 is below 10 nM with MV4;11 cells (setting [1]), below 10 nM with MV4;11 cells (setting [5]), 10 to 100 nM in the test with MOLM-13 cells (setting [3]) and below 10 nM in the test with MOLM-13 cells (setting [6]).
Consider `O=C1CCC(N2C(=O)c3ccc(NCCC[C@H]4C[C@H](n5cc(-c6cnc7ccc(C8CCOCC8)cc7n6)cn5)C4)cc3C2=O)C(=O)N1` (stereo partly drawn) [GS-181, 2-(2,6-Dioxopiperidin-3-yl)-5-((3-(trans-3-(4-(7-(tetrahydro-2H-pyran-4-yl)quinoxalin-2-yl)-1H-pyrazol-1-yl)cyclobutyl)propyl)amino)isoindoline-1,3-dione], for which the IC50 in the test on MV4;11 cells (setting [1]) is 10 to 100 nM; with MV4;11 cells (setting [2]), below 10 nM; in the test on MOLM-13 cells (setting [3]), 10 to 100 nM; in the test on MOLM-13 cells (setting [4]) it was below 10 nM.
With `O=C1CCC(N2C(=O)c3ccc(NCCC[C@H]4C[C@H](n5cc(-c6cnc7c(N8CCOCC8)cccc7n6)cn5)C4)cc3C2=O)C(=O)N1` (stereo partly drawn) [GS-403, 2-(2,6-Dioxopiperidin-3-yl)-5-((3-(trans-3-(4-(5-morpholinoquinoxalin-2-yl)-1H-pyrazol-1-yl)cyclobutyl)propyl)amino)isoindoline-1,3-dione], the IC50 in the test on MV4;11 cells (setting [1]) lay in the range of 100 to 1000 nM; in the test on MV4;11 cells (setting [2]), 10 to 100 nM; with MOLM-13 cells (setting [3]) it was 100 to 1000 nM; with MOLM-13 cells (setting [4]), 10 to 100 nM.
On to `Cc1ccc(-c2cnn([C@H]3C[C@H](CCCNc4ccc5c(c4)C(=O)N(C4CCC(=O)NC4=O)C5=O)C3)c2)nc1` (stereo partly drawn) [GS-446, 2-(2,6-dioxopiperidin-3-yl)-5-((3-(trans-3-(4-(5-methylpyridin-2-yl)-1H-pyrazol-1-yl)cyclobutyl)propyl)amino)isoindoline-1,3-dione], for which the IC50 was 100 to 1000 nM in the test with MV4;11 cells (setting [1]), 10 to 100 nM with MV4;11 cells (setting [5]), above 1000 nM with MOLM-13 cells (setting [3]) and 10 to 100 nM with MOLM-13 cells (setting [6]).
Consider `O=C1CCC(N2C(=O)c3ccc(NCCC[C@H]4C[C@H](n5cc(-c6cnc7ccc(CN8CCOCC8)cc7n6)cn5)C4)cc3C2=O)C(=O)N1` (stereo partly drawn) [GS-208, 2-(2,6-Dioxopiperidin-3-yl)-5-((3-(trans-3-(4-(7-(morpholinomethyl)quinoxalin-2-yl)-1H-pyrazol-1-yl)cyclobutyl)propyl)amino)isoindoline-1,3-dione], for which the IC50 with MV4;11 cells (setting [1]) lay within 100 to 1000 nM; in the test on MV4;11 cells (setting [2]), 10 to 100 nM; in the test on MOLM-13 cells (setting [3]), 100 to 1000 nM; in the test with MOLM-13 cells (setting [4]) it was 10 to 100 nM.
On to `CNc1cccc(-c2cnn([C@H]3C[C@H](CCCNc4ccc5c(c4)C(=O)N(C4CCC(=O)NC4=O)C5=O)C3)c2)n1` (stereo partly drawn) [GS-251, 2-(2,6-Dioxopiperidin-3-yl)-5-((3-(trans-3-(4-(6-(methylamino)pyridin-2-yl)-1H-pyrazol-1-yl)cyclobutyl)propyl)amino)isoindoline-1,3-dione], for which the IC50 in the test with MV4;11 cells (setting [1]) is 100 to 1000 nM; in the test with MV4;11 cells (setting [2]) it was 10 to 100 nM; with MOLM-13 cells (setting [3]), 100 to 1000 nM; with MOLM-13 cells (setting [4]) it was 10 to 100 nM.
As for `Cc1nc(-c2cn([C@H]3C[C@H](CNc4ccc5c(c4)C(=O)N(C4CCC(=O)NC4=O)C5=O)C3)nc2C2CC2)ccc1F` (stereo partly drawn) [GS-305, 5-(((trans-3-(3-Cyclopropyl-4-(5-fluoro-6-methylpyridin-2-yl)-1H-pyrazol-1-yl)cyclobutyl)methyl)amino)-2-(2,6-dioxopiperidin-3-yl)isoindoline-1,3-dione], the IC50 in the test on MV4;11 cells (setting [1]) was 10 to 100 nM; with MV4;11 cells (setting [2]), below 10 nM; in the test with MOLM-13 cells (setting [3]), 10 to 100 nM; in the test with MOLM-13 cells (setting [4]) it was below 10 nM.
Regarding `CN1CC(c2cccc(-c3cn([C@H]4C[C@H](CNc5ccc6c(c5)C(=O)N(C5CCC(=O)NC5=O)C6=O)C4)nc3C3CC3)n2)C1` (stereo partly drawn) [GS-619, 5-(((trans-3-(3-Cyclopropyl-4-(6-(1-methylazetidin-3-yl)pyridin-2-yl)-1H-pyrazol-1-yl)cyclobutyl)methyl)amino)-2-(2,6-dioxopiperidin-3-yl)isoindoline-1,3-dione], the IC50 in the test with MV4;11 cells (setting [1]), in the test with MV4;11 cells (setting [5]), in the test on MOLM-13 cells (setting [3]) and with MOLM-13 cells (setting [6]) was above 1000 nM each time.
As to `O=C1CCC(N2Cc3ccc(CCCCCCC(=O)N4CCC(c5cccc(Cl)c5)CC4)cc3C2=O)C(=O)N1` (stereo not drawn) [GS-115, 3-(6-(7-(4-(3-Chlorophenyl)piperidin-1-yl)-7-oxoheptyl)-1-oxoisoindolin-2-yl)piperidine-2,6-dione], the IC50 was 100 to 1000 nM in the test with MV4;11 cells (setting [1]), 10 to 100 nM in the test on MV4;11 cells (setting [2]), 10 to 100 nM in the test on MOLM-13 cells (setting [3]) and below 10 nM in the test on MOLM-13 cells (setting [4]).
As to `O=C1CCC(N2C(=O)c3ccc(NC4CC5(C4)CC(n4cc(-c6cnc7ccccc7n6)cn4)C5)cc3C2=O)C(=O)N1` (stereo not drawn) [GS-527, 2-(2,6-Dioxopiperidin-3-yl)-5-((6-(4-(quinoxalin-2-yl)-1H-pyrazol-1-yl)spiro[3.3]heptan-2-yl)amino)isoindoline-1,3-dione], the IC50 was 100 to 1000 nM in the test on MV4;11 cells (setting [1]), 100 to 1000 nM in the test with MV4;11 cells (setting [5]), above 1000 nM in the test on MOLM-13 cells (setting [3]) and 100 to 1000 nM in the test with MOLM-13 cells (setting [6]).
